Assay results published in US20080262053A1 (priority 2005, published 2008).

Key:
[1] = tested on: patients with idiopathic RLS; conditions: continuous treatment over 6 months or more
Procedure: The severity of the symptoms was determined by means of the difference between the time of randomisation after 6 months and the results after the end of the trial, according to the international RLS scale. The results of 147 patients were evaluated.

[2] = tested on: patients suffering from moderate to severe RLS
Text: The expression moderate to severe RLS is used when patients reach a points score of >15 on the international RLS scale. The scale runs from 0 (no RLS symptoms) to 40 (severest form of RLS). Thus, in moderate to severe RLS, the symptoms usually occur more than twice a week.

[3] = tested on: RLS; conditions: open trials

CCCNC1CCc2nc(N)sc2C1.Cl.Cl (stereo not drawn) [pramipexole, 2-amino-6-n-propylamino-4,5,6,7-tetrahydrobenzo-thiazole dihydrochloride]
effect of continuous treatment on RLS symptoms [1]: lasting improvement in the RLS symptoms
patient-reported improvement in symptoms (quality of sleep, restlessness of the legs, etc.) ([2]; after only one week of treatment): significant improvements in all areas of symptoms
subjective impression of treated patients ([2]; majority of treated patients): great or very great improvement
improvement in the RLS symptoms ([2]; patients with moderate to severe RLS (>15 points on international RLS scale)): rapid improvement in the RLS symptoms
duration of improvement in the symptoms in RLS patients (lasting effect) ([2]; pramipexole administered continuously): at least 6 months
persistence of lasting clinical effects [3]: ≥ 12 months
